In patent US7297332B2, “Protease, a gene therefor and the use thereof” (Korean Research Institute of Bioscience and Biotechnology, priority 2000, dated 2007):
“Also recorded” adds a separate entry of the source.

System: protease derived from Aranicola proteolyticus
Assay: Effect of protease inhibitors on the protease (azocasein assay)
Format: biochemical, Aranicola proteolyticus HY-3
Conditions: for inhibition of the enzyme activity: 1 mM inhibitor, incubated at 37° C. for 5 minutes, azocasein substrate; for effect of metalloprotease inhibitor on protease activity: equal concentrations of inhibitors, FIG. 1
Experimental: Enzyme activity of the protease was measured according to the method described by Braun & Shmitz (Braun, V. & Schmitz, G., Arch. Microbiol. 124, 55-61, 1980). A substrate solution was prepared by dissolving 0.24 g of azocasein in 10 ml of 50 mM phosphate buffer (pH 7.5). The 300 □ of the substrate solution was mixed with 100 □ of bacterial culture solution and reacted at 37° C. for 30 minutes. Then, 300 □ of 10% trichloride acetate was added to the reaction solution and incubated at ambient temperature for 1 hour. The reaction solution was centrifuged at 7,000 rpm until pellet and supernatant was separated substantially. After adding 30 0 of 10% sodium hydroxide (NaOH) to the supernatant, the absorbance was measured at 420 nm. The enzymatic titer was defined as 1 unit by the 1.0 fold increment of absorbance value.
In order to examine the effects of protease inhibitors on the activity of the protease, the enzyme solution was added by 1 mM each of inhibitors enumerated below and incubated at 37° C. for 5 minutes before measuring relative enzyme activity. The inhibitors tested include antopain which is an aminopeptidase inhibitor, phosphoramidon which is a metalloendopeptidase inhibitor, pepstatin which is an aspartate protease inhibitor, E-64(L-trans-exoxysuccinyl leucylamido(4-fuanidino)butane) which is a cystein inhibitor, chymostatin which is a chymotrypsin inhibitor, leupeptin, petabloc SC, aprotinin, and PMSF which are serine protease inhibitors, phenanthroline and EDTA which are metalloprotease inhibitors.

## O=C(O)CN(CCN(CC(=O)O)CC(=O)O)CC(=O)O [EDTA]
  inhibition of the enzyme activity: about 30%
  effect of metalloprotease inhibitor on protease activity: lowered; also recorded: inhibited

## c1cnc2c(c1)ccc1cccnc12 [phenanthroline]
  inhibition of the enzyme activity: about 70%
  effect of metalloprotease inhibitor on protease activity: lowered; also recorded: inhibited
